Assay results from paper PMC6652260 (Endocrine Connections, 2019).

Tests used:
[1] = molecular target: T1, human placental HSD11B2 (Homo sapiens, UniProt P80365); assay: Human placental microsomal HSD11B2 activity assay; format: biochemical
T1 sequence (P80365 1-405): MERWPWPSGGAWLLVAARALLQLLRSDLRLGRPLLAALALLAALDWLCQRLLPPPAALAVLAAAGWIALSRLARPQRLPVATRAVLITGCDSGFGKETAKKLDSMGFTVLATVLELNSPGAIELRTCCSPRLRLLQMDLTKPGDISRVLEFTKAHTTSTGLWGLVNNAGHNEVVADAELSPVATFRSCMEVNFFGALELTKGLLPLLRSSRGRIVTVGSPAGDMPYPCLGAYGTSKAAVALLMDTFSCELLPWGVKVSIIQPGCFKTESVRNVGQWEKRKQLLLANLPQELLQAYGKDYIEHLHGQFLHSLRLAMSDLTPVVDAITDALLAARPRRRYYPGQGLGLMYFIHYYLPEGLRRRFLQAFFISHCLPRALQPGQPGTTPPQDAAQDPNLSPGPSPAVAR

[2] = test system: human trophoblast cell lines BeWo and HTR-8; settings: DES at pM, BeWo and HTR-8 cells; cited from earlier work
[3] = test system: cultured trophoblast cells; settings: cited from earlier work

SMILES	IC50 [1]	Mode of action versus cofactor NAD+ (Lineweaver–Burk), human HSD11B2 ([1]; cofactor NAD+ varied, human placental microsomes)	Mode of action versus steroid substrate (Lineweaver–Burk), human HSD11B2 ([1]; cortisol as the substrate, human placental microsomes)	inhibition at 100 µM ([1]; read-out: Inhibition of human placental HSD11B2 activity)	Effect on human β-chorionic gonadotropin (β-hCG) secretion [2]	Effect on secretion of human chorionic gonadotropin [3]
CC/C(=C(/CC)c1ccc(O)cc1)c1ccc(O)cc1 [DES, Diethylstilbestrol]	12.6 µM	uncompetitive inhibitor	competitive inhibitor	> 50%	can inhibit	–
CC1(C)[C@@H](OC(=O)CCC(=O)O)CC[C@]2(C)[C@H]3C(=O)C=C4[C@@H]5C[C@@](C)(C(=O)O)CC[C@]5(C)CC[C@@]4(C)[C@]3(C)CC[C@@H]12 [carbenoxolone]	–	–	–	–	–	stimulated secretion
